US8709718B1, “Method of treating lung cancer” (Max-Planck-Gesellschaft zur Forderung der Wissenschaften …, priority 2011, dated 2014)

Tests used:
[1] = system: H1975 (FGFR1 wild type) cells; assay: Xenograft mouse model, EGFR-mutant H1975 cells; assay type: in vivo, mice; details: xenografted EGFR-mutant H1975 cells
Experimental: (§1) All animal procedures were approved by the local animal protection committee and the local authorities. 5*10^6 tumor cells were injected subcutaneously into male nude mice.

[2] = system: FGFR1-amplified cell lines; assay: Soft-agar colony formation assay; assay type: cell-based; details: FGFR1-amplified cells
Experimental: Cells were suspended in growth media containing 10% FCS and 0.6% agar and plated in triplicate on 50 μl solidified growth medium (10% FCS; 1.0% agar). Growth medium containing indicated compound concentrations was added on top. Colonies were analyzed using the Scanalyzer imaging system (Lemnatec, Germany).

[3] = system: EGFR-mutant cell line HCC827; assay: Immunoblotting of phosphorylated FGFR and downstream molecules; assay type: cell-based
Text: (§2) The following antibodies were used for immunoblotting: β-actin (MPBioscience), phospho-FGFR(Y653, Y654), pFRS2 (Tyr196), p-AKT (S473), pS6, S6, AKT, p-ERK, ERK (Cell Signaling Technology), total-FGFR1 (Santa Cruz), anti-rabbit-HRP, anti-mouse-HRP-antibody (Millipore).

[4] = system: FGFR1-amplified cells (H1581, H520); assay: as above; assay type: cell-based
Text: as §2

[5] = system: FGFR1 amplified cell line H520; assay: FGFR1 phosphorylation by immunoprecipitation; assay type: cell-based; details: H520, 1 μM
Experimental: For the detection of FGFR1 phosphorylation, whole-cell lysates (0.5-1 mg) in NP40 lysis buffer was incubated with agarose A/G Plus preconjugated with the FGFR1 antibody. Immunoprecipitates were washed in NP40 lysis buffer, boiled in sample buffer, and subjected to SDS-PAGE followed by immunoblotting using an anti phospho-tyrosine residues antibody to detect specific phosphorylation of FGFR1.

[6] = system: 83 lung cancer cell lines; assay: Cell-line screening, viability by cellular ATP content (CellTiter-Glo); assay type: cell-based
[7] = system: phospho-ERK, phospho-AKT in FGFR1-amplified tumors; assay: Immunohistochemical staining of explanted tumors; assay type: in vivo, mice; details: end of treatment
Text: Mice bearing FGFR1-amplified tumors were sacrificed at the end of treatment. Tumors were exgrafted and embedded in paraffin. […] Antibodies recognizing pAKT, pERK, AKT and ERK were obtained from Cell signaling.

FGFR1 = FGFR1 (Homo sapiens, UniProt P11362); details: FGFR1 one of only two of 105 kinases
H1581 cells = assay: Xenograft mouse model, FGFR1-amplified H1581 cells; assay type: in vivo; details: 100 mg/kg twice a day, oral gavage, mice engrafted with FGFR1-amplified cells
Experimental: as §1

[8] = system: lung cancer cells carrying amplified FGFR1; assay: Apoptosis by Annexin V/PI flow cytometry; assay type: cell-based; details: 1.0 μM, 72 hours, versus DMSO; specifically in FGFR1-amplified cells; p=0.008
Experimental: Finally the cells were analyzed on a FACS Canto FlowCytometer (BD Biosciences).

[9] = system: PDGFRA- and FGFR1-amplified cell line H1703; details: 96 h of compound treatment, increasing concentrations
Experimental: Viability was determined after 96 hours by measuring cellular ATP content (CellTiter-Glo, Promega). Half-maximal inhibitory concentrations (GI50) were determined using the statistical data analysis software “R” with the package “ic50”.

[10] = Pharmacokinetics of PD173074 in mice; assay type: in vivo
Experimental: Pharmacokinetic data were created by taking blood-samples from male nude mice by puncture of the tail-vein under isoflurane anesthesia. […] All blood samples were centrifuged; the blood plasma-containing supernatant was extracted and stored at -20° C. Analytic samples were prepared from the blood plasma by acetonitrile extraction with an internal standard of 1 μM griseofulvin. […] Pharmacokinetic data was evaluated with WinNonlin Software (Pharsight).

[11] = system: FGFR1-amplified lung cancer cells expressing FGFR1^V561M; details: 0.5 μM and 1.0 μM
Text: The V561M mutation was introduced into FGFR1 cloned in pBABE-Puro by site-directed mutagenesis. Replication-incompetent retroviruses were produced by contransfection with the pCL-ampho plasmid in HEK 293T cells. Hairpin shRNA targeting the different genes were ordered from Sigma. Replication-incompetent lentiviruses were produced from pLKO.1-Puro based vectors by contransfection with Δ8.9 and pMGD2 in 293T cells as described previously (Sos et al., Cancer Res 70, 868-874 (2010)). After transduction cells were selected with puromycin (1.5 μg/ml) and five days after selection cells were counted using trypan blue.

Sequence of FGFR1 (P11362 22-822): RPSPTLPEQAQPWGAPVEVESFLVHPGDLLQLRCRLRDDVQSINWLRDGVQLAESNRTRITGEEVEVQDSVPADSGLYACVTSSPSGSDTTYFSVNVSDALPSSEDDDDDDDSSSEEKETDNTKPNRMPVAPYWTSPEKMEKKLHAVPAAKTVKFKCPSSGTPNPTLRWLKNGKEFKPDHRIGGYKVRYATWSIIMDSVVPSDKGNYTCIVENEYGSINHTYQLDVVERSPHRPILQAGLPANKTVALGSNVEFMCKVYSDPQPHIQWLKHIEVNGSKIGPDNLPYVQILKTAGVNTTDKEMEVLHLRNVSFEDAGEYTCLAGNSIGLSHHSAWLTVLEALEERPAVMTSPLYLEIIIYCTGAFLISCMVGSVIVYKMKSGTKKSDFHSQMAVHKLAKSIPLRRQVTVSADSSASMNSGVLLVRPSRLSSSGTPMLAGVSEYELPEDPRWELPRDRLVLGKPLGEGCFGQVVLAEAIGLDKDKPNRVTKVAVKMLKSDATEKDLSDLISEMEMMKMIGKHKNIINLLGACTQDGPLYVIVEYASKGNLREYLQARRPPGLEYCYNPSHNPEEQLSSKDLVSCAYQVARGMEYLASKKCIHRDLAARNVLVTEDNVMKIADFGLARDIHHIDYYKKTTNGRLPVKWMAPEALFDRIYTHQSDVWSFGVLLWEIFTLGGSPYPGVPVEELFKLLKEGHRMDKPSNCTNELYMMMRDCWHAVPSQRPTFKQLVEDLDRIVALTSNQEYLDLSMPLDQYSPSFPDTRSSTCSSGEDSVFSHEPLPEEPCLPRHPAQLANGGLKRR

SMILES: CCN(CC)CCCCNc1ncc2cc(-c3cc(OC)cc(OC)c3)c(NC(=O)NC(C)(C)C)nc2n1 [PD173074]
- tumor regression [1]: did not show signs of regression
- colony formation in soft agar [2]: decreased colony formation
- levels of phosphorylated FGFR1 and FRS2 [3]: not in the EGFR-mutant cell line HCC827
- levels of phosphorylated FGFR1 [4]: reduced the levels of phosphorylated FGFR1
- phosphorylation of ERK [4]: inhibition of phosphorylation of ERK
- phosphorylation of FGFR1 (phosphotyrosine after immunoprecipitation) [5]: leads to dephosphorylation of FGFR1
- sensitivity of FGFR1-amplified cell line H520 ([6]; H520, derived from a squamous-cell lung cancer patient): sensitive
- GI50 ([6]; four of the 83 lung cancer cell lines tested, viability after 96 hours, read-out: half-maximal growth inhibitory concentration (GI50)): < 1000 nM
- growth inhibition ([6]; specifically in lung cancer cells carrying amplified FGFR1, p=0.0002): inhibited growth
- levels of phospho-AKT in explanted tumors [7]: not of phospho-AKT
- levels of phospho-ERK in explanted tumors [7]: reduction in the levels of phospho-ERK
- kinase inhibition (FGFR1): strongly inhibited
- tumor size (H1581 cells): tumor shrinkage
- induction of apoptosis [8]: induced apoptosis
- activity on viability of H1703 cells [9]: not active
- exposure ([10]; 50 mg/kg twice a day compared to 100 mg/kg twice a day): only a minimal exposure
- half-life in vivo ([10]; mice): short half-life
- cytotoxicity and dephosphorylation of FGFR on expression of FGFR1^V561M [11]: abolished
